# From patent publication US20160010138A1, “RAPID DETERMINATION OF MICROBIAL DROWTH AND ANTIMICROBIAL SUSEPTABILITY” (priority 2013, published 2016)
# Like-named read-outs stand apart in the source and are kept apart here.
# What was measured:
# [1] = system: Staphylococcus aureus (STAU); test: MADM system resistance phenotype tests on respiratory specimens; format: cell-based; conditions: for resistance phenotype result (S/R), MADM: ID STAU, MRSA by FOX
# Method: (ABCC). Concurrent quantitative culture was performed on specimens.
# Specimen preparation used a brief procedure to release bacteria, reduce imaging background, and suspend bacteria in a low ionic strength buffer. […] We rejected 10 samples with heavy interfering background when dilution to OD600=0.3 yielded organism counts inadequate for analysis. We rejected 7 samples for other technical deficiencies. The remaining 62 specimens were tested using the MADM system.
# (§1) 20 μL samples of prepared specimen were pipetted into independent flowcell channels and a low-voltage electrical field was applied for 5 minutes. The electrical field concentrated bacteria onto a functional surface coating that immobilized the bacteria on the lower flowcell surface. Each flowcell channel received only one type of test reagent solution that contained a selective agent if required (only for channels used to test AB, sulbactam 32 μg/mL).
# (§2) The instrument acquired images at 10-minutes intervals for 180 minutes, using 10 fields of view in each flowcell channel through a 20× objective. Imaging used darkfield illumination. Identification variables included response to selective agents (AB with sulbactam), cell morphology, growth morphology, and growth rate.
# (§3) Identification algorithms applied to each individual immobilized bacterial cell. The system measured the amount of change in mass over time to compute growth rates. Identification consisted of computing and combining probability scores for morphology, response to selective media, and growth rates to produce a receiver operating characteristic curve (ROC) to derive classification criteria.
# STAU = test: MADM (BACcel) phenotype/sensitivity by growth analysis, surveillance mini-BAL; format: cell-based, S. aureus; conditions: Spec# 008-D7, BACcel ID STAU, 1.11 × 10^6 CFU/ml
# Method: (§4) Adult MICU patients with identified surrogate were included within 72 hours of intubation and if anticipated to require MV for >48 h. Moribund state or pregnancy were exclusions. Surveillance mini-BAL (Combicath, Plastimed) was performed on Day 1, 3, 5, 7 and 10 of MV. Samples were split and processed for both a) routine respiratory quantitative microbiological culture and sensitivity assays (>48 h result availability) and b) rapid (<8 hour) flowcell/surface-capture assays using the MADM system. Viable microorganisms were identified using growth analysis enhanced by a focused VAP antibody panel (S. aureus, P. aeruginosa, A. baumannii). Untypable organisms were also reported. Sensitivity was assessed using growth analysis. Attending physicians were blinded to MADM system results.
# (§5) BAL sample were prepared, removing debris and separating microorganisms from other sample material. Sample microorganisms were introduced into a multichannel fluidic cassette as described elsewhere herein. Bacteria were concentrated and retained on the lower surface of all flowcells using low-voltage electrical field (5 min) Antibody labeling of bacteria in flowcells was used to aid identification.
# (§6) The automated digital microscopy system was used to perform darkfield imaging of 10 fields of view every 10 minutes for 180 minutes in each flowcell channel. Initial epifluorescence imaging was also performed for antibody detection. […] Identification consisted of probability scores based on microorganism morphology and growth rates. Antibody labeling identification data was also incorporated. Observed microorganisms were then classified as STAU, PSAE, or non-target. Antibiotic responses were used to aid identification when appropriate. Quantitation was performed by counting identified microorganisms and computing original specimen CFU/mL.
# Steno = test: as above; format: cell-based, S. maltophilia
# Method: as §4, §5, §6
# [2] = system: Staphylococcus aureus (SA); test: Same-day blood culture MADM drug resistance phenotyping; format: cell-based; conditions: SA in 6 μg/mL FOX, dark-field images over 3 hours (FIG. 10B)
# Method: The MADM system used a custom microscope and pipetting robot, plus an evaluation system, as described herein. 32-channel disposable cassettes (FIG. 4A) enabled live microorganism immobilization for microscopy and fluid exchanges for different test agents. The microscope scanned 40 image fields in each flowcell channel, each channel having organisms extracted from about 3.5 μL of prepared inoculum.
# Simulated blood specimens consisted of isolates spiked into 10 mL each of 29 aliquots of two short-fill CPD blood bank bags to make approximately 5 CFU/mL of bacterial target species, confirmed by quantitative culture. Spiked isolates included 14 Staphylococcus aureus (SA), 3 Pseudomonas aeruginosa (PA), or 12 non-target Gram-negative bacilli species. Dilution of each sample with 30 mL of modified TSB culture medium promoted growth. 20 additional control aliquots contained no spikes. 4-hour incubation at 35° C., followed with brief spin cleanup, ended with pellet resuspension into an electrokinetic buffer to make 1 mL samples for MADM system analysis. 20 μL sample aliquots were then pipetted into 14 cassette flowcells. A 5-minute low-voltage electrokinetic capture was performed to concentrate microorganisms on the lower surface of each flowcell where a capture coating immobilized the bacterial cells. […]
# Enteric = test: MADM (BACcel) phenotype/sensitivity by growth analysis, surveillance mini-BAL; format: cell-based; conditions: Spec# 005-D7, BACcel ID Enteric, 1.26 × 10^5 CFU/ml
# Method: as §4
# BAL sample were prepared, removing debris and separating microorganisms from other sample material. Sample microorganisms were introduced into a multichannel fluidic cassette as described elsewhere herein. […]
# The automated digital microscopy system was used to perform darkfield imaging of 10 fields of view every 10 minutes for 180 minutes in each flowcell channel. […] Quantitation was performed by counting identified microorganisms and computing original specimen CFU/mL.
# K. pneumoniae = test: Respiratory/metabolic activity indicator labeling (2-NBDG uptake); format: cell-based; conditions: overnight refrigerator stock culture; approximately 1 min of exposure to 1 μM
# From the text: (§7) Physiologic indicators of active bacteria include indicators of growth, responsiveness to external stimulus, transcription, translation, energy dependent activity, enzyme activity, and an intact permeability barrier. The indicators tested experimentally were grouped according to the following functional categories of physiologic states to which they are responsive, which included indicators of respiratory and metabolic activity, and membrane integrity.
# (§8) 2-NBDG (Molecular Probes) is a fluorescent derivative (green channel) of D-glucose that is internalized by active bacteria.
# S. maltophilia = test: as above; format: cell-based; conditions: overnight refrigerator culture; negative control (does not metabolize glucose)
# From the text: as §7, §8
# H. influenzae = test: as above; format: cell-based; conditions: overnight refrigerator culture, viability independently verified
# From the text: as §7, §8
# S. aureus = test: as above; format: cell-based; conditions: overnight refrigerator culture, viability independently verified
# From the text: as §7, §8
# E. coli [3] = test: as above; format: cell-based; conditions: overnight refrigerator stock culture; approximately 1 min of exposure to 1 μM
# From the text: as §7, §8
# E. coli [4] = test: Membrane potential indicator, red:green fluorescence ratio; format: cell-based; conditions: O/N refrigerator stock vs CCCP-treated E. coli
# From the text: as §7
# Active bacterial cells maintain a proton gradient across their cell membranes, creating a membrane potential that may be measured using fluorescent dyes. However, the dyes used in this study to evaluate membrane potential are toxic to bacteria and can only be used as an endpoint assay.
# DiOC2(3) (Molecular Probes) is a dye that fluoresces in the red channel when it is highly concentrated and self-associates in cells with an intact membrane potential. […] The red:green fluorescence ratio is used to normalize the fluorescence results of cells with differing sizes. Carbonylcyanide-m-chlorophenylhydrazone (CCCP) is a proton ionophore that disrupts the proton gradient and was used to treat E. coli cells in an experimental sample that was compared to an untreated overnight refrigerator stock.
# [5] = system: Acinetobacter spp. (ABCC); test: MADM system resistance phenotype tests on respiratory specimens; format: cell-based, Acinetobacter sp.; conditions: ABCC-positive specimen (specimen name not given); further: key: S: susceptible; R: resistant
# Method: (§9) These specimens were prepped for introduction into the MADM system. The system performed quantitative ID for Staphylococcus aureus (STAU), Pseudomonas aeruginosa (PSAE), and Acinetobacter spp. (ABCC). Concurrent quantitative culture was performed on specimens. The MADM system performed resistance phenotype tests on STAU-containing specimens for cefoxitin (FOX) MRSA phenotyping and clindamycin (CLI) resistance. The system tested ABCC- and PSAE-containing specimens for amikacin (AN) and imipenem (IMP) resistance.
# (§10) Specimen preparation used a brief procedure to release bacteria, reduce imaging background, and suspend bacteria in a low ionic strength buffer. […] The remaining 62 specimens were tested using the MADM system.
# as §1, §2, §3
# [6] = system: Acinetobacter spp. (ABCC); conditions: ABCC-positive specimen (specimen name not given); culture result
# From the text: (§11) A total of 281 de-identified remnant respiratory specimens were collected from hospital and commercial sources. The specimens included 25 endotracheal aspirates (ETA) of unknown age obtained from a specimen vendor. Also included were 230 mini-bronchoalveolar lavage (mini-BAL) and 26 ETA specimens obtained from Denver Health Medical Center (DHMC). DHMC specimens were 7-21 days old. AST results were available for all mini-BAL specimens but not for ETA. Accompanying reports also included semi-quantitative ID used to select 92 bacteria-positive specimens for analysis using the MADM system. Targets included Pseudomonas aeruginosa, Acinetobacter baumannii complex, and Staphylococcus aureus. Controls used standard culturing methods (Cx).
# as §9
# [7] = system: Pseudomonas aeruginosa (PSAE); format: cell-based; conditions: ID PSAE, culture result; further: key: S: susceptible; R: resistant
# From the text: as §11, §9
# [8] = system: Pseudomonas aeruginosa (PSAE); test: MADM system resistance phenotype tests on respiratory specimens; format: cell-based; conditions: ID PSAE; further: key: S: susceptible; R: resistant
# Method: as §9, §10, §1, §2, §3
compound,measurement,setting,value
"CO[C@@]1(NC(=O)Cc2cccs2)C(=O)N2C(C(=O)O)=C(COC(N)=O)CS[C@@H]21 [FOX, cefoxitin]","resistance phenotype result (S/R), MADM","[1]; specimen DH 425, Mini-BAL",R
same,"resistance phenotype result (S/R), MADM","[1]; specimen DH 427, Mini-BAL",S
same,"resistance phenotype result (S/R), MADM","[1]; specimen DH 439, Mini-BAL",R
same,"resistance phenotype result (S/R), MADM","[1]; specimen DH 440, BAL",S
same,"resistance phenotype result (S/R), MADM","[1]; specimen DH 457, BAL",S
same,"resistance phenotype result (S/R), MADM","[1]; specimen DH 485, BAL",S
same,"resistance phenotype result (S/R), MADM","[1]; specimen DH 509, BAL",S
same,"resistance phenotype result (S/R), MADM","[1]; specimen DH 514, Mini-BAL",S
same,"resistance phenotype result (S/R), MADM","[1]; specimen DH 543, BAL",S
same,"resistance phenotype result (S/R), MADM","[1]; specimen DH 550, BAL",S
same,"resistance phenotype result (S/R), MADM","[1]; specimen DH 556, Mini-BAL",S
same,"resistance phenotype result (S/R), MADM","[1]; specimen T12, ETA",R
same,MRSA/MSSA call by FOX in the MADM system,[1]; the one discordant STAU sample,MRSA
same,"Phenotype, sensitivity",STAU,FOX - R
same,"Phenotype, sensitivity (growth in antibiotic)","Steno; Spec# 006-D1, BACcel ID Steno, 7.68 × 10^5 CFU/ml","growth, TZP-"
same,"Phenotype, sensitivity (growth in antibiotic)","Steno; Spec# 006-D3, BACcel ID Steno, 1.60 × 10^4 CFU/ml","growth, TZP-"
same,clone growth in drug,[2],growth indicating MRSA phenotype
same,"Phenotype, sensitivity (growth in antibiotic)",Enteric,all growth
O=[N+]([O-])c1ccc(N[C@H]2C(O)O[C@H](CO)[C@@H](O)[C@@H]2O)c2nonc12 (some centres unmarked) [2-NBDG],fluorescent labeling,K. pneumoniae,fluorescently labeled
same,fluorescent labeling,S. maltophilia,did not fluoresce
same,fluorescent labeling,H. influenzae,did not fluoresce
same,fluorescent labeling,S. aureus,did not fluoresce
same,fluorescent labeling,E. coli [3],fluorescently labeled
CCN1/C(=C/C=C/c2oc3ccccc3[n+]2CC)Oc2ccccc21.[I-] [DiOC2(3)],red:green fluorescence ratios,E. coli [4],No significant difference
"C[C@@H](O)[C@H]1C(=O)N2C(C(=O)O)=C(SCCN=CN)C[C@H]12 [IMP, imipenem]","resistance phenotype result (S/R), MADM",[5],S
same,"resistance phenotype result (S/R), Cx",[6],S
same,"resistance phenotype result (S/R), Cx","[7]; specimen DH 430, Mini-BAL",S
same,"resistance phenotype result (S/R), Cx","[7]; specimen DH 554, BAL",S
same,"resistance phenotype result (S/R), Cx","[7]; specimen DH 641, Mini-BAL",S
same,"resistance phenotype result (S/R), MADM","[8]; specimen DH 430, Mini-BAL",S
same,"resistance phenotype result (S/R), MADM","[8]; specimen DH 554, BAL",S
same,"resistance phenotype result (S/R), MADM","[8]; specimen DH 641, Mini-BAL",S
